In one series the test system is MCF-7 (breast cancer). Kind of series: MTT cytotoxicity assay, MCF-7. The settings on record: for IC50: MTT, 72 h, breast cancer cell line MCF-7, read-out: IC50 against MCF-7; for folds activity of 5-FU against MCF-7: relative to 5-fluorouracil. In kind it is cell-based, human. The protocol:
(§1) The methods are provided in Supplementary material.
(§2) The newly synthesised compounds 7–21 were tested for their cytotoxicity against human cancer cell line viz. breast and colorectal using MTT assay.
(§3) Two human cancer cell lines, MCF-7 and HCT-116 were cultured in Dulbecco’s Modified Eagles Medium (DMEM) high glucose medium which was supplemented with 10% fetal bovine serum (FBS), 10,000 units/mL penicillin/streptomycin (Pen/Strep) and 1% glutamine). The above cell lines were cultured in 75 cm2 flasks and maintained at 37 °C in an incubator humidified with 5% CO2. The cell culture was performed using aseptic techniques in a Class II […]
(§4) Breast MCF-7 and colorectal HCT-116 cancer cells were added at (1 × 10^5 cells/mL) into a 96 well plate with three replicates and incubated overnight for attachment at 37°C, in 5% CO2 humidified atmosphere. Drug concentrations at 6 serial dilutions (100, 50, 10, 1, 0.5 and 0.1 μM) were added in triplicates and incubated at 37°C, 5% CO2 for 72 h. Drugs were dissolved in 0.1 % DMSO as a vehicle. Untreated cells were used as control. 5-fluorouracil (5-FU) was used as a positive control. Thereafter, each well for each time point was removed and replaced with […] of full medium containing 10% of 3-(4,5- dimethylthiaxolyl-2)-2,5-diphenyltetrazoliumbromide (MTT) (10 mg/mL). Media was removed and 100µl of DMSO was added and cells were incubated for further 5 mins at 37 °C and 5% CO2. Plates were quantified using the SpectraMax M3 plate reader at 570 nm. The percentage inhibition was calculated as 100–[(Mean OD of treated cell × 100)/Mean OD of vehicle treated cells (DMSO)]. All the experiments were repeated at least three independent experiments. […]

Series [1] relates to HCT-116 (colorectal cancer). As to the kind of experiment: MTT cytotoxicity assay, HCT-116. The series is classed as cell-based, human. To be noted: for IC50: MTT, 72 h, colorectal cancer cell line HCT-116, read-out: IC50 against HCT-116; for folds cytotoxicity compared to 5-FU against HCT-116: relative to 5-fluorouracil. The protocol:
as §1, §2, §3, §4

In series [2] the target is thymidylate synthase (TS) (Homo sapiens, UniProt P04818). Kind of series: In vitro thymidylate synthase assay (spectrophotometric, 340 nm). In kind it is biochemical. The protocol:
TS activity was performed according to the method as described by Wahab and Friedkin[27] with a slight modification according to Santi.[28] (Refer to Supplementary material for the method.) […]
In vitro Thymidylate synthase assay
It involves a mixture containing 2-mercaptoethanol (0.1 M), (6R,S)-tetrahydrofolate (0.0003 M), formaldehyde (0.012 M), MgCl2 (0.02 M), dUMP (0.001 M), TrisHCl (0.04 M), and NaEDTA […]
(0.00075 M). This assay was done spectrophotometrically at 30° C and pH 7.4. The reaction was initiated by the addition of an amount of enzyme giving a change in absorbance at 340 nm of 0.016/min in the absence of inhibitor. The percent inhibition was determined at a minimum of four inhibitor concentrations within 20% of the 50% point. The standard deviations for […]

[3] abbreviates: 30 °C, pH 7.4, read-out: TS inhibition IC50.

SMILES strings stand for the structures. Read-outs that look alike come from different tables or passages of the source.

These results are taken from publication PMC7241536, “Design, synthesis and in vitro antiproliferative activity of new thiazolidinedione-1,3,4-oxadiazole hybrids as thymidylate synthase inhibitors” (Journal of Enzyme Inhibition and Medicinal Chemistry, 2020).

Sequence of thymidylate synthase (TS) (P04818 whole entry): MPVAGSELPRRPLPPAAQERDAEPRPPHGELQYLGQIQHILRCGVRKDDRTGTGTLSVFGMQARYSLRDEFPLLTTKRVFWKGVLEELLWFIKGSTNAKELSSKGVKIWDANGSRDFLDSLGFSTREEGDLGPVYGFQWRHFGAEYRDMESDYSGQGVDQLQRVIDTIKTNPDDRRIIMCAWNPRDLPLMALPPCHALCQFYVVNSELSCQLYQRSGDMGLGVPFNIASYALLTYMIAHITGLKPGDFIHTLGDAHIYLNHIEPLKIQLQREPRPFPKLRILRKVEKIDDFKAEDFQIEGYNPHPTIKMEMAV

In the case of `O=c1[nH]cc(F)c(=O)[nH]1` [Compound 5-FU, 5-fluorouracil, reference compound], the IC50 in the series on MCF-7 (breast cancer) (Homo sapiens, MCF7, 72 h) turned out to be 34.8 µM; in series [1] (Homo sapiens, HCT-116, 72 h), 40.5 µM.
For `COc1ccc(/C=C2\SC(=O)N(Cc3nnc(-c4ccccc4)o3)C2=O)cc1` [Compound 7, (Z)-5-(4-methoxybenzylidene)-3-((5-phenyl-1,3,4-oxadiazol-2-yl)methyl)thiazolidine-2,4-dione] the same measures were 53.5 µM and 57.3 µM.
Turning to `COc1ccc(/C=C2\SC(=O)N(Cc3nnc(-c4cccc(Cl)c4)o3)C2=O)cc1` [Compound 8, (Z)-5-(4-methoxybenzylidene)-3-((5-(3-chlorophenyl)-1,3,4-oxadiazol-2-yl)methyl)thiazolidine-2,4-dione], the IC50 in the series on MCF-7 (breast cancer) (Homo sapiens, MCF7, 72 h) is 56 µM; in series [1] (Homo sapiens, HCT-116, 72 h), 56.8 µM.
The molecule `COc1ccc(/C=C2\SC(=O)N(Cc3nnc(-c4ccccc4Cl)o3)C2=O)cc1` [Compound 9, (Z)-5-(4-methoxybenzylidene)-3-((5-(2-chlorophenyl)-1,3,4-oxadiazol-2-yl)methyl)thiazolidine-2,4-dione] came in with a melting point of 276 to 277 °C. In series [2] (setting [3]), the IC50 is 1.67 µM. For the same molecule, in the series on MCF-7 (breast cancer) (Homo sapiens, MCF7, 72 h), the IC50 came out at 7.47 µM. In the series on MCF-7 (breast cancer), the half-inhibitory concentration (IC50) stood at 7.74 µM and the “folds activity of 5-FU against MCF-7” value was found to be 4.5 folds. The IC50 in series [1] (Homo sapiens, HCT-116, 72 h) came to 12.8 µM. Besides, the “folds cytotoxicity compared to 5-FU against HCT-116” value in series [1] amounted to 3.1 folds.
For the molecule `COc1ccc(/C=C2\SC(=O)N(Cc3nnc(-c4ccc(Br)cc4)o3)C2=O)cc1` [Compound 10, (Z)-5-(4-methoxybenzylidene)-3-((5-(4-bromophenyl)-1,3,4-oxadiazol-2-yl)methyl)thiazolidine-2,4-dione], the half-maximal inhibitory concentration (IC50) in series [2] (setting [3]) was determined as 2.21 µM; in the series with MCF-7 (breast cancer) (Homo sapiens, MCF7, 72 h), 7.87 µM; in series [1] (Homo sapiens, HCT-116, 72 h) it was 16.1 µM. In addition, the “folds activity of 5-FU against MCF-7” value with MCF-7 (breast cancer) amounted to 4.4 folds. The “folds cytotoxicity compared to 5-FU against HCT-116” value in series [1] came out at 2.5 folds.
As to `COc1ccc(/C=C2\SC(=O)N(Cc3nnc(-c4ccc(C)cc4)o3)C2=O)cc1` [Compound 11, (Z)-5-(4-methoxybenzylidene)-3-((5-p-tolyl-1,3,4-oxadiazol-2-yl)methyl)thiazolidine-2,4-dione], the melting point is 197 to 198 °C. Also, the IC50 in the series with MCF-7 (breast cancer) (Homo sapiens, MCF7, 72 h) was 58.4 µM. Also, the IC50 in series [1] (Homo sapiens, HCT-116, 72 h) stood at 68.1 µM.
Turning to `COc1ccc(/C=C2\SC(=O)N(Cc3nnc(-c4ccccc4O)o3)C2=O)cc1` [Compound 12, (Z)-5-(4-methoxybenzylidene)-3-((5-(2-hydroxyphenyl)-1,3,4-oxadiazol-2-yl)methyl)thiazol idine-2,4-dione], the 50% inhibitory concentration (IC50) with MCF-7 (breast cancer) (Homo sapiens, MCF7, 72 h) is 56.3 µM; in series [1] (Homo sapiens, HCT-116, 72 h), 58.6 µM.
Taken in the same sequence, the figures for `COc1ccc(/C=C2\SC(=O)N(Cc3nnc(-c4ccccc4C)o3)C2=O)cc1` [Compound 13, (Z)-5-(4-methoxybenzylidene)-3-((5-o-tolyl-1,3,4-oxadiazol-2-yl)methyl)thiazolidine-2,4-dione] were 56.3 µM and 58.6 µM.
For the molecule `COc1ccc(/C=C2\SC(=O)N(Cc3nnc(-c4cccc([N+](=O)[O-])c4)o3)C2=O)cc1` [Compound 14, (Z)-5-(4-methoxybenzylidene)-3-((5-(3-nitrophenyl)-1,3,4-oxadiazol-2-yl)methyl)thiazolidine-2,4-dione], the IC50 in series [2] (setting [3]) turned out to be 9.4 µM; with MCF-7 (breast cancer) (Homo sapiens, MCF7, 72 h), 43.4 µM; in series [1] (Homo sapiens, HCT-116, 72 h), 42.2 µM; in series [1] it was 42.2 µM.
Take `COc1ccc(/C=C2\SC(=O)N(Cc3nnc(-c4cccc(C)c4)o3)C2=O)cc1` [Compound 15, (Z)-5-(4-methoxybenzylidene)-3-((5-m-tolyl-1,3,4-oxadiazol-2-yl)methyl)thiazolidine-2,4-dione]: the 50% inhibitory concentration (IC50) was determined as 7.9 µM in series [2] (setting [3]); 47.8 µM in the series with MCF-7 (breast cancer) (Homo sapiens, MCF7, 72 h); 39.6 µM in series [1] (Homo sapiens, HCT-116, 72 h).
Regarding `COc1ccc(/C=C2\SC(=O)N(Cc3nnc(COc4ccccc4)o3)C2=O)cc1` [Compound 16, (Z)-5-(4-methoxybenzylidene)-3-((5-(phenoxymethyl)-1,3,4-oxadiazol-2-yl)methyl)thiazolidine-2,4-dione], the melting point lay within 152 to 153 °C. In the series with MCF-7 (breast cancer) (Homo sapiens, MCF7, 72 h), the 50% inhibitory concentration (IC50) worked out at 58.4 µM. For the same molecule, the IC50 in series [1] (Homo sapiens, HCT-116, 72 h) stood at 67.1 µM.
`COc1ccc(/C=C2\SC(=O)N(Cc3nnc(COc4cccc(Cl)c4)o3)C2=O)cc1` [Compound 17, (Z)-3-((5-((3-chlorophenoxy)methyl)-1,3,4-oxadiazol-2-yl)methyl)-5-(4-methoxybenzylidene)thiazolidine-2,4-dione]: the melting point was in the range of 142 to 143 °C. In addition, in the series with MCF-7 (breast cancer) (Homo sapiens, MCF7, 72 h), the IC50 is 65.2 µM. Also, in series [1] (Homo sapiens, HCT-116, 72 h), the half-maximal inhibitory concentration (IC50) was 55.5 µM.
Taken in the same sequence, the figures for `COc1ccc(/C=C2\SC(=O)N(Cc3nnc(COc4cccc(Cl)c4Cl)o3)C2=O)cc1` [Compound 18, (Z)-3-((5-((2,3-dichlorophenoxy)methyl)-1,3,4-oxadiazol-2-yl)methyl)-5-(4-methoxybenzylidene)thiazolidine-2,4-dione] were 209 to 210 °C, more than 100 µM and more than 100 µM.
Taken in the same sequence, the figures for `COc1ccc(/C=C2\SC(=O)N(Cc3nnc(COc4cccc5ccccc45)o3)C2=O)cc1` [Compound 19, (Z)-5-(4-methoxybenzylidene)-3-((5-((naphthalen-1-yloxy)methyl)-1,3,4-oxadiazol-2-yl)methyl) thiazolidine-2,4-dione] were 220 to 221 °C, 61.6 µM and 69.5 µM.
For the molecule `COc1ccc(/C=C2\SC(=O)N(Cc3nnc(COc4ccc5ccccc5c4)o3)C2=O)cc1` [Compound 20, (Z)-5-(4-methoxybenzylidene)-3-((5-((naphthalen-3-yloxy)methyl)-1,3,4-oxadiazol-2-yl)methyl) thiazolidine-2,4-dione], the melting point is 210 to 211 °C. For the same molecule, the half-inhibitory concentration (IC50) with MCF-7 (breast cancer) (Homo sapiens, MCF7, 72 h) was more than 100 µM. The IC50 in series [1] (Homo sapiens, HCT-116, 72 h) is more than 100 µM.
Molecule `COc1ccc(/C=C2\SC(=O)N(Cc3nnc(COc4cccc5cccnc45)o3)C2=O)cc1` [Compound 21, (Z)-5-(4-methoxybenzylidene)-3-((5-((quinolin-8-yloxy)methyl)-1,3,4-oxadiazol-2-yl)methyl) thiazolidine-2,4-dione] came in with a melting point of 161 to 162 °C. For the same molecule, the half-maximal inhibitory concentration (IC50) in the series with MCF-7 (breast cancer) (Homo sapiens, MCF7, 72 h) came to 62 µM. The IC50 in series [1] (Homo sapiens, HCT-116, 72 h) is 63.1 µM.
In turn, `Nc1nc2[nH]cc(CCc3ccc(C(=O)N[C@@H](CCC(=O)O)C(=O)O)cc3)c2c(=O)[nH]1` [PTX, Pemetrexed, reference compound] had an IC50 in series [2] of 8.2 µM.
